Values quoted from earlier work as cited in patent publication US9248112B2, “Hemodialysis and peritoneal dialysis solutions comprising one or more creatine compounds” (CREARENE LTD., priority 2009, dated 2016).
Where two headings read alike, the source gives them in different places.

Key:
[1] = not given; remark: listed apart in the source
homocysteine [2] = conditions: animal model
[3] = adults, clinical studies
[4] = biological target: T1, creatine transporter protein (CrT) (Homo sapiens, UniProt P48029); conditions: CrT in the plasma membrane
T1 sequence (P48029 1-635): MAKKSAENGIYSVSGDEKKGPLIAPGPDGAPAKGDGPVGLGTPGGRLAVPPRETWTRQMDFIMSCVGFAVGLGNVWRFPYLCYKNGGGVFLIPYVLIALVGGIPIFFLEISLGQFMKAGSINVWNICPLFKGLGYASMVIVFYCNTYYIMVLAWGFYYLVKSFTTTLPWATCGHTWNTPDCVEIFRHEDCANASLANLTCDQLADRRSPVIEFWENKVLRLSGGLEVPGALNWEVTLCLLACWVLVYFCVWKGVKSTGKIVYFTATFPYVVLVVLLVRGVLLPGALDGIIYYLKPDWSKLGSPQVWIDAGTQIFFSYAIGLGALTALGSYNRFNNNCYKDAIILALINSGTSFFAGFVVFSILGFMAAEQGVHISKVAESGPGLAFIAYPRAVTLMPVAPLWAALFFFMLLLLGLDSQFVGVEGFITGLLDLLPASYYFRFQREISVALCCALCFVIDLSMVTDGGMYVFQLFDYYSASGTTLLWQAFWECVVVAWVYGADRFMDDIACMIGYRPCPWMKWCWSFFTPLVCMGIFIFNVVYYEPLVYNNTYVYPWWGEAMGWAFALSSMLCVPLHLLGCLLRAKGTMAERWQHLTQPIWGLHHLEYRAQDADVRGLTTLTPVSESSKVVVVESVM

homocysteine [5] = system: homocysteine
[6] = not given; remark: listed apart in the source
[7] = peritoneal dialysis solution, 37° C.

Compound | decrease in muscle cramps (12 g orally 5 minutes before hemodialysis, four week treatment) | serum creatinin after treatment (after four week treatment period, 12 g orally before hemodialysis) | serum creatinin before treatment (start of four week treatment period) | stability in acidic aqueous solutions ([1]; acidic aqueous solutions, temperatures over 60° C.) | storage stability in solution ([1]; neutral pH, cooled) | serum levels of homocysteine (homocysteine [2]) | safe daily intake [3] | Km [4] | homocystein levels (homocysteine [5]; 2 g/day, additionally vitamin B supplemented subjects) | homocystein levels (homocysteine [5]; humans, approximately 5 g Cr/day) | serum creatine concentration ([6]; after a single oral dose of 5-20 g of creatine) | time to reach maximal levels in the blood stream ([6]; ingested (oral) creatine) | concentration near the saturation limit of creatine [7]
CN(CC(=O)O)C(=N)N.O [creatine monohydrate] | 60% | 12.4 mg/dL | 10.7 mg/dL | some instability | can be stored for thirty days without losses | – | – | – | – | – | – | – | –
CN(CC(=O)O)C(=N)N [creatine] | – | – | – | – | – | reduce serum levels | up to 20 g daily | 25 to 30 µM | no such effects were seen | reduction of homocystein levels | 1-2 mM/l | two to four | 24-25 g per liter
